According to PubChem BioAssay AID1745844 (Carcinogenic Potency Database (CPDB), 2022):
Calls of active or inactive are those of the source. How the calls were made is not given here.

Test system: rodent lifetime carcinogenesis bioassay, tumor incidence TD50
Test: carcinogenic potency in animals, long-term in vivo studies, CPDB compilation (AID 1745844)

CCCCN(N=O)C(N)=O
TD50 (rat, strain F344/DuCrj, females, in drinking water, site: all sites, lesion: several types, types named in the paper, dosed 50 weeks, study length 50 weeks): 24.7 mg/kg/day
TD50 (rat, strain F344/DuCrj, females, in drinking water, site: digestive tract, lesion: several types, types named in the paper, dosed 50 weeks, study length 50 weeks): 1.3 mg/kg/day
TD50 (rat, strain F344/DuCrj, females, in drinking water, site: ear duct, lesion: several types, types named in the paper, dosed 50 weeks, study length 50 weeks): 11.6 mg/kg/day
TD50 (rat, strain F344/DuCrj, females, in drinking water, site: ear duct, lesion: squamous-cell carcinoma, sebaceous, dosed 50 weeks, study length 50 weeks): 19.4 mg/kg/day
TD50 (rat, strain F344/DuCrj, females, in drinking water, site: esophagus, lesion: papilloma, dosed 50 weeks, study length 50 weeks): 6.58 mg/kg/day
TD50 (rat, strain F344/DuCrj, females, in drinking water, site: esophagus, lesion: several types, types named in the paper, dosed 50 weeks, study length 50 weeks): 3.21 mg/kg/day
TD50 (rat, strain F344/DuCrj, females, in drinking water, site: esophagus, lesion: squamous-cell carcinoma, dosed 50 weeks, study length 50 weeks): 8.05 mg/kg/day
TD50 (rat, strain F344/DuCrj, females, in drinking water, site: forestomach, lesion: papilloma, dosed 50 weeks, study length 50 weeks): 4 mg/kg/day
TD50 (rat, strain F344/DuCrj, females, in drinking water, site: forestomach, lesion: several types, types named in the paper, dosed 50 weeks, study length 50 weeks): 2.43 mg/kg/day
TD50 (rat, strain F344/DuCrj, females, in drinking water, site: forestomach, lesion: squamous-cell carcinoma, dosed 50 weeks, study length 50 weeks): 10.2 mg/kg/day
TD50 (rat, strain F344/DuCrj, females, in drinking water, site: pharynx, lesion: several types, types named in the paper, dosed 50 weeks, study length 50 weeks): 8.05 mg/kg/day
TD50 (rat, strain F344/DuCrj, females, in drinking water, site: pharynx, lesion: squamous-cell carcinoma, dosed 50 weeks, study length 50 weeks): 10.2 mg/kg/day
TD50 (rat, strain F344/DuCrj, females, in drinking water, site: tongue, lesion: papilloma, dosed 50 weeks, study length 50 weeks): 13.5 mg/kg/day
TD50 (rat, strain F344/DuCrj, females, in drinking water, site: tongue, lesion: several types, types named in the paper, dosed 50 weeks, study length 50 weeks): 10.2 mg/kg/day
TD50 (rat, strain F344/DuCrj, females, in drinking water, site: vagina, lesion: papilloma, dosed 50 weeks, study length 50 weeks): 6 mg/kg/day
TD50 (rat, strain F344/DuCrj, females, in drinking water, site: vagina, lesion: several types, types named in the paper, dosed 50 weeks, study length 50 weeks): 5.05 mg/kg/day
TD50 (rat, strain F344/DuCrj, males, in drinking water, site: all sites, lesion: several types, types named in the paper, dosed 50 weeks, study length 50 weeks): 10.2 mg/kg/day
TD50 (rat, strain F344/DuCrj, males, in drinking water, site: digestive tract, lesion: several types, types named in the paper, dosed 50 weeks, study length 50 weeks): 0.91 mg/kg/day
TD50 (rat, strain F344/DuCrj, males, in drinking water, site: duodenum, lesion: several types, types named in the paper, dosed 50 weeks, study length 50 weeks): 11.8 mg/kg/day
TD50 (rat, strain F344/DuCrj, males, in drinking water, site: ear duct, lesion: several types, types named in the paper, dosed 50 weeks, study length 50 weeks): 11.8 mg/kg/day
TD50 (rat, strain F344/DuCrj, males, in drinking water, site: esophagus, lesion: papilloma, dosed 50 weeks, study length 50 weeks): 4.08 mg/kg/day
TD50 (rat, strain F344/DuCrj, males, in drinking water, site: esophagus, lesion: several types, types named in the paper, dosed 50 weeks, study length 50 weeks): 3.02 mg/kg/day
TD50 (rat, strain F344/DuCrj, males, in drinking water, site: esophagus, lesion: squamous-cell carcinoma, dosed 50 weeks, study length 50 weeks): 17 mg/kg/day
TD50 (rat, strain F344/DuCrj, males, in drinking water, site: forestomach, lesion: papilloma, dosed 50 weeks, study length 50 weeks): 3.25 mg/kg/day
TD50 (rat, strain F344/DuCrj, males, in drinking water, site: forestomach, lesion: several types, types named in the paper, dosed 50 weeks, study length 50 weeks): 2.62 mg/kg/day
TD50 (rat, strain F344/DuCrj, males, in drinking water, site: palate, soft, lesion: several types, types named in the paper, dosed 50 weeks, study length 50 weeks): 11.8 mg/kg/day
TD50 (rat, strain F344/DuCrj, males, in drinking water, site: palate, soft, lesion: squamous-cell carcinoma, dosed 50 weeks, study length 50 weeks): 17 mg/kg/day
TD50 (rat, strain Fischer 344, females, by gavage, site: colon, lesion: one or several types, types not named, dosed 40 weeks, study length 104 weeks): 2.31 mg/kg/day
TD50 (rat, strain Fischer 344, females, by gavage, site: forestomach, lesion: one or several types, types not named, dosed 40 weeks, study length 104 weeks): 0.267 mg/kg/day
TD50 (rat, strain Fischer 344, females, by gavage, site: lung, lesion: several types, types named in the paper, dosed 40 weeks, study length 104 weeks): 0.277 mg/kg/day
TD50 (rat, strain Fischer 344, females, by gavage, site: mammary gland, lesion: adenocarcinoma, dosed 40 weeks, study length 104 weeks): 0.758 mg/kg/day
TD50 (rat, strain Fischer 344, females, by gavage, site: uterus, lesion: several types, types named in the paper, dosed 40 weeks, study length 104 weeks): 0.551 mg/kg/day
TD50 (rat, strain Fischer 344, males, by gavage, site: colon, lesion: one or several types, types not named, dosed 40 weeks, study length 104 weeks): 1.61 mg/kg/day
TD50 (rat, strain Fischer 344, males, by gavage, site: forestomach, lesion: one or several types, types not named, dosed 40 weeks, study length 104 weeks): 0.259 mg/kg/day
TD50 (rat, strain Fischer 344, males, by gavage, site: lung, lesion: several types, types named in the paper, dosed 40 weeks, study length 104 weeks): 0.187 mg/kg/day
TD50 (rat, strain MRC-Wistar, females, in drinking water, site: all sites, lesion: myelocytic leukemia, dosed 39 weeks, study length 85 weeks): 3.27 mg/kg/day
TD50 (rat, strain MRC-Wistar, females, in drinking water, site: any site (literature study), lesion: one or several types, types not named, dosed 39 weeks, study length 85 weeks): 1.02 mg/kg/day
TD50 (rat, strain MRC-Wistar, females, in drinking water, site: liver, lesion: one or several types, types not named, dosed 39 weeks, study length 85 weeks): 6.63 mg/kg/day
TD50 (rat, strain MRC-Wistar, females, in drinking water, site: mammary gland, lesion: one or several types, types not named, dosed 39 weeks, study length 85 weeks): 6.63 mg/kg/day (inactive)
TD50 (rat, strain MRC-Wistar, males, in drinking water, site: all sites, lesion: myelocytic leukemia, dosed 39 weeks, study length 85 weeks): 2.86 mg/kg/day
TD50 (rat, strain MRC-Wistar, males, in drinking water, site: any site (literature study), lesion: one or several types, types not named, dosed 39 weeks, study length 85 weeks): 1.64 mg/kg/day
TD50 (rat, strain MRC-Wistar, males, in drinking water, site: liver, lesion: one or several types, types not named, dosed 39 weeks, study length 85 weeks): 26.1 mg/kg/day

C[C@]12C=CC(=O)C=C1CC[C@@H]1[C@@H]2[C@@H](O)C[C@@]2(C)[C@H]1CC[C@]2(O)C(=O)CO
TD50 (rat, strain Charles River CD (Sprague-Dawley), males, in drinking water, site: liver, lesion: hepatocellular adenoma, dosed 104 weeks, study length 104 weeks): 2.16 mg/kg/day
TD50 (rat, strain Charles River CD (Sprague-Dawley), males, in drinking water, site: liver, lesion: hepatocellular carcinoma, dosed 104 weeks, study length 104 weeks): 6.58 mg/kg/day
TD50 (rat, strain Charles River CD (Sprague-Dawley), males, in drinking water, site: liver, lesion: several types, types named in the paper, dosed 104 weeks, study length 104 weeks): 1.53 mg/kg/day
TD50 (rat, strain Sprague-Dawley, females, by gavage, site: any site (literature study), lesion: benign tumor, dosed 78 weeks, study length 104 weeks): 1.96 mg/kg/day (inactive)
carcinogen call (rat, strain Sprague-Dawley, females, by gavage, site: any site (literature study), lesion: malignant tumor, dosed 78 weeks, study length 104 weeks): negative (inactive)

CCCCCNN
TD50 (mouse, strain Swiss albino, females, in drinking water, site: blood vessels, lesion: angioma, dosed 94 weeks, study length 94 weeks): 71.9 mg/kg/day
TD50 (mouse, strain Swiss albino, females, in drinking water, site: blood vessels, lesion: angiosarcoma, dosed 94 weeks, study length 94 weeks): 82.2 mg/kg/day
TD50 (mouse, strain Swiss albino, females, in drinking water, site: blood vessels, lesion: several types, types named in the paper, dosed 94 weeks, study length 94 weeks): 35.5 mg/kg/day
TD50 (mouse, strain Swiss albino, females, in drinking water, site: liver, lesion: several types, types named in the paper, dosed 94 weeks, study length 94 weeks): 223 mg/kg/day
TD50 (mouse, strain Swiss albino, females, in drinking water, site: lung, lesion: adenocarcinoma, dosed 94 weeks, study length 94 weeks): 18.7 mg/kg/day
TD50 (mouse, strain Swiss albino, females, in drinking water, site: lung, lesion: adenoma, dosed 94 weeks, study length 94 weeks): 7.95 mg/kg/day
TD50 (mouse, strain Swiss albino, females, in drinking water, site: lung, lesion: several types, types named in the paper, dosed 94 weeks, study length 94 weeks): 5.87 mg/kg/day
TD50 (mouse, strain Swiss albino, males, in drinking water, site: blood vessels, lesion: several types, types named in the paper, dosed 94 weeks, study length 94 weeks): 65.6 mg/kg/day
TD50 (mouse, strain Swiss albino, males, in drinking water, site: liver, lesion: several types, types named in the paper, dosed 94 weeks, study length 94 weeks): 271 mg/kg/day
TD50 (mouse, strain Swiss albino, males, in drinking water, site: lung, lesion: adenoma, dosed 94 weeks, study length 94 weeks): 30 mg/kg/day
TD50 (mouse, strain Swiss albino, males, in drinking water, site: lung, lesion: several types, types named in the paper, dosed 94 weeks, study length 94 weeks): 46.9 mg/kg/day

CC=NO
TD50 (rat, strain Fischer 344, males, in drinking water, site: liver, lesion: hyperplastic nodule, dosed 110 weeks, study length 129 weeks): 445 mg/kg/day

N[C@@H](CC(=O)O)C(=O)O
TD50 (rat, strain F344/DuCrj, females, in drinking water, site: any site (literature study), lesion: several types, types named in the paper, dosed 100 weeks, study length 100 weeks): 8340 mg/kg/day (inactive)
carcinogen call (rat, strain F344/DuCrj, females, in drinking water, site: liver, lesion: one or several types, types not named, dosed 100 weeks, study length 100 weeks): negative (inactive)
TD50 (rat, strain F344/DuCrj, males, in drinking water, site: any site (literature study), lesion: several types, types named in the paper, dosed 100 weeks, study length 100 weeks): 2720 mg/kg/day (inactive)
carcinogen call (rat, strain F344/DuCrj, males, in drinking water, site: liver, lesion: one or several types, types not named, dosed 100 weeks, study length 100 weeks): negative (inactive)

CC1(C)C(=O)Nc2ccc(C3=NNC(=O)CC3)cc21
TD50 (rat, strain Fischer 344, females, in feed, site: adrenal medulla, lesion: pheochromocytoma, benign, dosed 104 weeks, study length 104 weeks): 5.05 mg/kg/day
TD50 (rat, strain Fischer 344, females, in feed, site: adrenal medulla, lesion: several types, types named in the paper, dosed 104 weeks, study length 104 weeks): 4.82 mg/kg/day
TD50 (rat, strain Fischer 344, males, in feed, site: adrenal medulla, lesion: pheochromocytoma, benign, dosed 95 weeks, study length 95 weeks): 1.38 mg/kg/day
TD50 (rat, strain Fischer 344, males, in feed, site: adrenal medulla, lesion: pheochromocytoma, malignant, dosed 95 weeks, study length 95 weeks): 23.8 mg/kg/day
TD50 (rat, strain Fischer 344, males, in feed, site: adrenal medulla, lesion: several types, types named in the paper, dosed 95 weeks, study length 95 weeks): 1.27 mg/kg/day

NNc1nc(-c2ccc(N)cc2)cs1
TD50 (mouse, strain Swiss, females, in feed, site: all sites, lesion: lymphocytic leukemia, dosed 46 weeks, study length 66 weeks): 11.3 mg/kg/day
TD50 (mouse, strain Swiss, females, in feed, site: any site (literature study), lesion: several types, types named in the paper, dosed 46 weeks, study length 66 weeks): 11.3 mg/kg/day
TD50 (rat, strain Sprague-Dawley, females, in feed, site: all sites, lesion: lymphoblastic lymphoma, dosed 46 weeks, study length 75 weeks): 7.09 mg/kg/day
TD50 (rat, strain Sprague-Dawley, females, in feed, site: any site (literature study), lesion: several types, types named in the paper, dosed 46 weeks, study length 75 weeks): 0.582 mg/kg/day
TD50 (rat, strain Sprague-Dawley, females, in feed, site: mammary gland, lesion: adenocarcinoma, dosed 46 weeks, study length 75 weeks): 1.02 mg/kg/day
TD50 (rat, strain Sprague-Dawley, females, in feed, site: mammary gland, lesion: several types, types named in the paper, dosed 46 weeks, study length 75 weeks): 1.03 mg/kg/day

ClCC1CO1 (stereo not drawn)
TD50 (mouse, strain Ha/ICR, females, i.p., site: lung, lesion: papillary tumor, dosed 64 weeks, study length 64 weeks): 28.9 mg/kg/day
TD50 (rat, strain Sprague-Dawley, males, inhaled, site: nasal cavity, lesion: squamous-cell carcinoma, dosed 54 weeks, study length 136 weeks): 421 mg/kg/day
TD50 (rat, strain Wistar, females, by gavage, site: forestomach, lesion: squamous-cell carcinoma, dosed 104 weeks, study length 104 weeks): 2.55 mg/kg/day
carcinogen call (rat, strain Wistar, females, by gavage, site: liver, lesion: neoplastic nodule, dosed 104 weeks, study length 104 weeks): negative (inactive)
TD50 (rat, strain Wistar, males, by gavage, site: any site (literature study), lesion: several types, types named in the paper, dosed 104 weeks, study length 104 weeks): 4.83 mg/kg/day
TD50 (rat, strain Wistar, males, by gavage, site: forestomach, lesion: squamous-cell carcinoma, dosed 104 weeks, study length 104 weeks): 3.53 mg/kg/day
carcinogen call (rat, strain Wistar, males, by gavage, site: liver, lesion: hepatocellular carcinoma, dosed 104 weeks, study length 104 weeks): negative (inactive)
carcinogen call (rat, strain Wistar, males, by gavage, site: liver, lesion: neoplastic nodule, dosed 104 weeks, study length 104 weeks): negative (inactive)
TD50 (rat, strain Wistar, males, by gavage, site: liver, lesion: one or several types, types not named, dosed 104 weeks, study length 104 weeks): 218 mg/kg/day (inactive)
